Results from patent US20100022639A1, “Methods of Inducing Weight Loss” (The Johns Hopkins University School of Medicine Licensing …, priority 2000, published 2010).

How the values were obtained:
[1] = Weight loss in mice lacking IL-1r and TNFαr1a receptors; details: mouse, in vivo
Source text: (§1) Alternatively, the signal from the FAS target tissue to the hypothalamus may be mediated by a humoral signal. This FAS-associated signal appears to be independent of the systemic release of the known feeding inhibitory hormones leptin and insulin, and the pro-inflammatory cytokines tumor necrosis factor-α and interleukin-1β. Nor is it reversed by administration of dexamethasone, a synthetic glucocorticoid.

[2] = tested on: neuropeptide Y (NPY) mRNA; assay: Northern blot of hypothalamic NPY mRNA; format: in vivo, BALB/c mice; details: 30 mg/kg C-75, 24 hours
Source text: The control of body weight is integrated in the hypothalamus by a coordinated group of neuropeptides that monitor adiposity and feeding status and regulate feeding and energy utilization. A central regulator in this process is neuropeptide Y (NPY) (loftus, 1999, Sem. Cell. Dev. Biol., 10: 11). In the arcuate nucleus, the level of NPY increases in the fasted state (Schwartz, et al., 1998, Endocrinology, 139:2629), acting as a potent stimulus of feeding (O'Shea, et al., 1997, Endocrinology, 138:196-202). To ascertain whether C-75 might alter NPY regulation in the hypothalamus, the expression of NPY was examined by northern blot analysis of hypothalamic tissue microdissected from the brains of the fed, fasted and C-75-treated mice shown in FIG. 2A.
The hypothalamic region was microdissected from the brains of mice in FIG. 2A and total RNA was isolated. RNA was subjected to northern blot analysis using random primed probes (Feinberg, et al., 1983, Anal. Biochem., 132:6) for NPY and S26 (as a loading control). Tissue was extracted for total RNA as described, P. Chomczynski and N. Sacchi, Anal. Biochem. 162, 156(1987). 15 μg of total RNA was subjected to Northern blot analysis as described, T. Brown, K. Mackey, in Current Protocols in Molecular Biology, F. Ausubel, et al., Eds. (John Wiley and Sons, New York, 1997) pp. 4.9.1-4.9.16.

[3] = Body weight of ob/ob mice over two week treatment; format: in vivo; details: 22 mg/kg IP every third day, two weeks
Source text: The magnitude of this effect is readily evident by inspection of representative C-75 and control treated ob/ob mice.

[4] = Body weight after a single IP injection; format: in vivo, BALB/c mice
Method: (§2) The effect of C-75 treatment on feeding behavior and body weight in mice is both rapid and dramatic. A single treatment leads to the loss of as much as 20% of total body weight within 24 hours (FIG. 1.2A). This weight loss occurs in a dose dependent manner and persists for a duration that increases with dose. In all cases, treated animals recover lost body weight after the effect of the drug has dissipated, arguing against induction of a persistent wasting.
Male BALB/c mice 19-22 g were weighed, treated by a single intra peritoneal (I.P.) injection and housed in metabolic cages. Body weight (FIG. 1.2A) and food intake (FIG. 1.2B) were monitored at 24 hour intervals.

[5] = tested on: liver and white adipose tissue; assay: Histology of liver and white adipose tissue of treated ob/ob mice; format: in vivo
Source text: C-75 treatment not only led to weight loss, but also corrected many of the pathological consequences that result from the extreme obesity of ob/ob mice. Liver samples from vehicle and C-75 treated mice (from FIG. 3B) were fixed in formalin and paraffin embedded. Tissue sections (4 μm) were stained with hematoxylin and eosin. […] The observation that C-75 acts through a leptin independent mechanism is particularly promising in that the majority of obese individuals appear to be relatively resistant to leptin's effects (Caro, et al., 1996, Lancet, 348:159).

[6] = tested on: 3T3-L1 adipocytes; assay: Cytoplasmic triglyceride accumulation in adipocytes in cell culture; format: cell-based; details: 3T3-L1 adipocytes in cell culture (not shown)
[7] = Weight loss of C-75-treated versus fasted mice; format: in vivo, BALB/c mice; details: 30 mg/kg, 24 hours, n=7
Source text: To determine whether the weight loss is attributable entirely to suppression of feeding, treatment with a dose of C-75 that completely suppresses feeding was compared with fasting. Both fasting and C-75 led to significant weight loss relative to control; however, in many experiments the C-75 treated mice lost more weight than did the fasted animals (FIG. 2A). The normal response to fasting is to reduce energy utilization to limit depletion of energy stores (Loftus, 1999). If C-75 treatment results in a “perceived fed state”, it may allow maintenance of a normal metabolic rate as well as inhibition of feeding.
Male BALB/c mice 19-21 g were preweighed and treated with vehicle or 30 mg/kg C-75 and allowed free access to food, or were denied all access to food (fasted). After 24 hours, mice were weighed. Change from initial body weight is shown in FIG. 2A, expressed as mean +/±SEM (n=7). C-75 treated mice lost 45% more weight than did the fasted animals.

[8] = Necropsy, histology, plasma alanine aminotransferase and tolerability in treated mice; format: in vivo
Source text: as §1, §2

Q: Which “weight loss in mice lacking IL-1r and TNFαr1a receptors” value [1] does the source give for C=C1C(=O)OC(CCCCCCCC)C1C(=O)O (centres unmarked) [C-75] here?
A: The value was “weight loss was observed”.

Q: What about the “level of hypothalamic NPY mRNA” value [2] of the same compound?
A: The value was “even lower than that of the fed controls”.

Q: And the “body weight of ob/ob mice” value [3]?
A: Its value is “substantial reduction in the body weight”.

Q: And the “loss of total body weight after a single treatment” value ([4]; within 24 hours, single IP treatment, 7.5-30 mg/kg)?
A: Its value is ≤ 20%.

Q: What about the “loss of total body weight” value ([4]; within a 24 hour period, BALB/c mice) of the same compound?
A: The value was 10-20%.

Q: And the “liver histology (hepatomegaly and fatty liver)” value ([5]; 14 days treatment)?
A: The value was “marked reduction in the hepatomegaly and fatty liver”.

Q: And the “mean adipocyte size in white adipose tissue” value ([5]; 14 days treatment (not shown))?
A: The value was “dramatic reduction in mean adipocyte size”.

Q: And the “histological abnormality from chronic treatment” value ([5]; liver and white adipose tissue)?
A: Its value is “no evidence of histological abnormality”.

Q: What about the cytoplasmic triglyceride accumulation [6] of the same compound?
A: The cytoplasmic triglyceride accumulation was “markedly reduces cytoplasmic triglyceride accumulation”.

Q: What about the “more weight lost than fasted animals” value [7] of the same compound?
A: The value was 45%.

Q: And the tolerability in mice ([8]; single IP treatment)?
A: Its tolerability in mice is “well tolerated”.

Q: What about the “histological analysis of tissues from treated mice” value ([8]; single IP treatment (not shown)) of the same compound?
A: Its value is “no indication of adverse pathology”.

Q: And the “necropsy and histological analysis of all major organs” value ([8]; treated mice)?
A: Its value is “no adverse pathology”.

Q: And the “plasma alanine aminotransferase activity” value ([8]; treated mice)?
A: Its value is “unchanged”.
